Laboratory results published in US20260083704A1, “LXR MODULATORS WITH BICYCLIC CORE MOIETY FOR TREATING DYSLIPIDEMIAS” (OrsoBio, Inc., priority 2022, published 2026).
Where two headings read alike, the source gives them in different places.

Legend:
[1] = Pharmacokinetics in mice after single oral dosing (blood/plasma and liver exposure); format: in vivo; conditions: for blood/plasma exposure / liver exposure / liver/blood ratio / blood/plasma exposure (below LLOQ) / liver exposure (below LLOQ): 20 mg/kg single oral dose, time point 4 h; for blood/plasma exposure (below LLOQ) / liver exposure (below LLOQ): number is the LLOQ; for oral bioavailability: single oral dose
Description: The pharmacokinetics of the compounds was assessed in mice after single dosing and oral administrations. Blood/plasma and liver exposure was measured via LC-MS.
The study design was as follows: • Animals: C57/bl6/J (Janvier) males • Diet: standard rodent chow • Dose: 20 mg/kg • Animal handling: animals were withdrawn from food at least 12 h before administration • Design: single dose oral administration, n=3 animals per group • Sacrifice: at stated time point (4, 12 or 24 h) after administration • Bioanalytics: LC-MS of liver and blood/plasma samples

LXRβ [2] = biological target: T1, LXRβ (Homo sapiens, UniProt P55055); assay: LXR Gal4 reporter transient transfection assay (mammalian two-hybrid, HEK293), LXRβ; format: cell-based; set-up: LXRβ (amino acids 156-461); expressed in transfected cells; host or cells: HEK293; conditions: full length (FL) LXRβ, HEK293; read-out: FL-M2H Gal4β
T1 sequence (P55055 1-460): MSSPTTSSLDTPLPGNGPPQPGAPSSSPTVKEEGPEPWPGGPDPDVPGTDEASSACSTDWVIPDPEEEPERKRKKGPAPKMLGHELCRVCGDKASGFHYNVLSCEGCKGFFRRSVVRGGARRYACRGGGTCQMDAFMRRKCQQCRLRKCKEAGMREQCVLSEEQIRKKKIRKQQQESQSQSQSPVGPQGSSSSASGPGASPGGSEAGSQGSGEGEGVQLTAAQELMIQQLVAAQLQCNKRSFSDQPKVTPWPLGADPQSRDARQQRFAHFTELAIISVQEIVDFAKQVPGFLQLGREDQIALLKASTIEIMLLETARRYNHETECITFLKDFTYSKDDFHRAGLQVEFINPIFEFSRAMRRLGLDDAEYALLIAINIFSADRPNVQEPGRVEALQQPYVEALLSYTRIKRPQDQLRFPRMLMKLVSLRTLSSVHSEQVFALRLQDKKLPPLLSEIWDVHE
Method in brief: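 HEK293 cells transiently co-transfected with full-length or LBD LXRα/LXRβ fused to NFkB activation domain, GAL4-DBD-fused SRC1 or NCoR cofactor domain, GAL4-responsive firefly luciferase reporter and Renilla control. Compound added 4 h post-transfection (≤0.2% DMSO), incubated 16 h; firefly and Renilla luminescence read sequentially.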

LXRβ [3] = biological target: T2, LXRβ (Homo sapiens, UniProt P55055); assay: as above; format: cell-based; conditions: ligand-binding domain (LBD) of LXRβ, HEK293; read-out: LBD-M2H Gal4β
T2 construct: LXRβ (amino acids 156-461); expressed in transfected cells; host or cells: HEK293
T2 sequence (P55055 156-460): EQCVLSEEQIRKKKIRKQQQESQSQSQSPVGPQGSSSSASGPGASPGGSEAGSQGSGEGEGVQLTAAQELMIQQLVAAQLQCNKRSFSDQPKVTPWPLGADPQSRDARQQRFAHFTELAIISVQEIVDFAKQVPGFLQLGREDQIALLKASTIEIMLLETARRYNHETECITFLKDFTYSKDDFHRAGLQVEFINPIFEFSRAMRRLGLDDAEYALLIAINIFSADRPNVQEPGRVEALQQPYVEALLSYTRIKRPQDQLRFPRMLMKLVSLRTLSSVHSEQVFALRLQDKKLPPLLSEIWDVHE
Description: (§1) LXRα and LXRβ activity status was determined via detection of interaction with coactivator and corepressor proteins in mammalian two-hybrid experiments (M2H). For this, via transient transfection the full length (FL) proteins of LXRα (amino acids 1-447; NP005684; SEQ ID NO:1) or LXRβ-(amino acids 1-461; NP009052; SEQ ID NO:2) or the ligand-binding domains (LBD) of LXRα (amino acids 155-447 SEQ ID NO:3) or LXRβ (amino acids 156-461; SEQ ID NO:4) were expressed from pCMV-AD (Stratagene) as fusions to the transcriptional activation domain of NFkB. As cofactors, domains of either the steroid receptor coactivator 1 (SRC1; amino acids 552-887; SEQ ID NO:5) or of the corepressor NCoR (amino acids 1906-2312; NP006302; SEQ ID NO:6) were expressed as fusions to the DNA binding domain of the yeast transcription factor GAL4 (from pCMV-BD; Stratagene). Interaction was monitored via activation of a coexpressed Firefly Luciferase Reporter gene under control of a promoter containing repetitive GAL4 response elements (vector pFRLuc; Stratagene). Transfection efficiency was controlled via cotransfection of constitutively active pRL-CMV Renilla reniformis luciferase reporter (Promega). HEK293 cells were grown in minimum essential medium (MEM) with 2 mM L-glutamine and Earle's balanced salt solution supplemented with 8.3% fetal bovine serum, 0.1 mM non-essential amino acids, 1 mM sodium pyruvate, at 37° C. in 5% CO2. 3.5×10^4 cells/well were plated in 96-well cell culture plates in growth medium supplemented with 8.3% fetal bovine serum for 16-20 h to ˜90% confluency. For transfection, medium was taken off and LXR and cofactor expressing plasmids as well as the reporter plasmids are added in 30 μL OPTIMEM/well including polyethylene-imine (PEI) as vehicle. Typical amounts of plasmids transfected/well: pCMV-AD-LXR (5 ng), pCMV-BD-cofactor (5 ng), pFR-Luc (100 ng), pRL-CMV (0.5 ng). Compound stocks were prepared in DMSO, prediluted in MEM to a total volume of 120 μL, and added 4 h after addition of the transfection mixture (final vehicle concentration not exceeding 0.2%). Cells were incubated for additional 16 h, lysed for 10 min in 1×Passive Lysis Buffer (Promega) and Firefly and Renilla luciferase activities were measured sequentially in the same cell extract using buffers containing D-luciferine and coelenterazine, respectively. Measurements of luminescence were done in a BMG-luminometer.
(§2) The potencies of Compound 21/3 and its analog, Compound pre-6/3, against LXRα and LXRβ were evaluated in biochemical binding assays, cellular mammalian two-hybrid (M2H) interaction assays evaluating nuclear receptor co-repressor (NCOR) recruitment, and cellular reporter assays evaluating transcriptional activity (Table 5).

[4] = biological target: T3, GST-LXRβ ligand-binding domain (Homo sapiens, UniProt P55055); assay: TR-FRETβ activity assay (NCoA3 coactivator peptide recruitment); format: biochemical; conditions: 1 μM 24(S)-25-epoxycholesterol prestimulation
T3 construct: amino acids 156-461; NP009052; made in house; host or cells: E. coli
T3 sequence (P55055 156-460 limits assumed): T2 sequence (P55055 156-460)
Method in brief: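 E. coli-expressed GST-LXRβ LBD (aa 156-461, 76 nM) with biotinylated NCoA3 peptide (400 nM) in Tris/HCl pH 6.8 containing 1 μM 24(S)-25-epoxycholesterol agonist. Compounds tested at 50 μM down to 0.002 μM in triplicate. TR-FRET (Tb cryptate/XL665, ex 340, em 615/665 nm) read after 1 h at 4° C.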

LXRα = biological target: T4, LXRα (Homo sapiens, UniProt Q13133); assay: LXR Gal4 reporter transient transfection assay (mammalian two-hybrid, HEK293), LXRα; format: cell-based; set-up: expressed in transfected cells; host or cells: HEK293; conditions: full length (FL) LXRα, HEK293; read-out: FL-M2H Gal4α
T4 sequence (Q13133 1-447): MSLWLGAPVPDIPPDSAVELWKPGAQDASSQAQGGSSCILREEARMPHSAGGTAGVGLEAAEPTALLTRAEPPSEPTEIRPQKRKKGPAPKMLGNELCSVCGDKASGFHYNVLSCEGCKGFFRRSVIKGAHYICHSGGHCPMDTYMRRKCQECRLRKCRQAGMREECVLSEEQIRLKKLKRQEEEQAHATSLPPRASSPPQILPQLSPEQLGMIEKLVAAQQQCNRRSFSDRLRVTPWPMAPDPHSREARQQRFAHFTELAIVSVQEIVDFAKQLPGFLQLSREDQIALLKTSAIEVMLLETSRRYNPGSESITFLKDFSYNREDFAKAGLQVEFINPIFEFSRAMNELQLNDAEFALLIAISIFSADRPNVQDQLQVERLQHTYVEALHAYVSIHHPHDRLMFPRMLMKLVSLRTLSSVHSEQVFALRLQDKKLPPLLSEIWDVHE
Description: as §1, §2

Structure (SMILES) | EC50 (LXRβ [2]) | EC50 (LXRβ [3]) | EC50 [4] | EC50 (LXRα) | further results
N#Cc1sccc1-c1c(-c2cccc(C3CC3C(=O)O)c2)n(S(=O)(=O)c2ccc(Cl)cc2)c2ccc(F)cc12 (stereo not drawn) [3/24] | < 100 nM | < 100 nM | – | – | blood/plasma exposure [1]: D (<100 nM); liver exposure [1]: C (1 μM to ≤3 μM); liver/blood ratio [1]: D (>30)
Cc1ccc(S(=O)(=O)n2c(-c3cccc(N4CC(C(=O)O)C4)c3)c(-c3ccsc3C#N)c3cc(F)c(F)cc32)cc1 [3/42] | < 100 nM | < 100 nM | 1000 to 10000 nM | – | –
Cc1ccc(S(=O)(=O)n2c(-c3cccc(N4CC(C(=O)O)C4)c3)c(-c3ccsc3C#N)c3cc(F)c(Cl)cc32)cc1 [3/43] | < 100 nM | 100 to 1000 nM | 1000 to 10000 nM | – | –
Cc1ccc(S(=O)(=O)n2c(-c3cccc(N4CC(C(=O)O)C4)c3)c(-c3ccsc3C#N)c3cc(Cl)ccc32)cc1 [3/44] | < 100 nM | < 100 nM | 1000 to 10000 nM | – | –
Cc1ccc(S(=O)(=O)n2c(-c3cccc(N4CC(C(=O)O)C4)c3)c(-c3ccsc3C#N)c3cc(C)ccc32)cc1 [3/46] | < 100 nM | < 100 nM | 100 to 1000 nM | – | –
Cc1ccc(S(=O)(=O)n2c(-c3cccc(-c4ccc(C(N)=O)cc4)c3)c(-c3ccsc3C#N)c3cc(F)ccc32)cc1 [6/2] | < 100 nM | – | 100 to 1000 nM | < 100 nM | –
Cc1cccc(C#N)c1-c1c(-c2cccc(-c3ccc(C(=O)O)cc3Cl)c2)n(S(=O)(=O)c2ccc(C(F)F)cc2)c2ccc(F)cc12 [11/36] | < 100 nM | – | < 100 nM | < 100 nM | –
N#Cc1cccc(C#N)c1-c1c(-c2cccc(-c3ccc(C(=O)O)cc3)c2)n(S(=O)(=O)c2ccc(C(F)F)cc2)c2ccc(F)cc12 [11/50] | < 100 nM | – | < 100 nM | < 100 nM | –
N#Cc1sccc1-c1c(-c2cccc(N3CC(C(=O)O)C3)c2)n(S(=O)(=O)c2ccc(Cl)cc2)c2ccccc12 [30/7] | – | < 100 nM | 100 to 1000 nM | – | blood/plasma exposure [1]: D (<100 nM); liver exposure [1]: B (300 nM to ≤1 μM); liver/blood ratio [1]: D (>30)
Cc1cccc(C#N)c1-c1c(-c2cccc(-c3ccc(C(=O)O)cc3Cl)c2)n(S(=O)(=O)c2ccc(C(F)F)cc2)c2ccc(F)cc12 [41/2, 2-chloro-3′-(3-(2-cyano-6-methylphenyl)-1-((4-(difluoro-methyl)phenyl)sulfonyl)-5-fluoro-1H-indol-2-yl)-[1,1′-biphenyl]-4-carboxylic acid] | – | – | < 100 nM | < 100 nM | –
N#Cc1cccc(-c2c(-c3cccc(-c4ccc(C(=O)O)cc4Cl)c3)n(S(=O)(=O)c3ccc(C(F)F)cc3)c3ccc(F)cc23)c1 [C11/48] | < 100 nM | – | < 100 nM | < 100 nM | –
Cc1ccc(S(=O)(=O)n2c(-c3cccc(-c4ccc(CN(C)C)cc4Cl)c3)c(-c3ccsc3C#N)c3cc(F)ccc32)cc1 [Compound 2] | < 100 nM | – | 100 to 1000 nM | < 100 nM | –
Cc1ccc(S(=O)(=O)n2c(-c3cccc(-c4cncc(S(=O)(=O)CC(=O)O)c4)c3)c(-c3ccsc3C#N)c3ccccc32)cc1 [Compound 5] | 1000 to 10000 nM | – | 100 to 1000 nM | 1000 to 10000 nM | –
Cc1ccc(S(=O)(=O)n2c(-c3cccc(-c4ccc(C(=O)NO)cc4)c3)c(-c3ccsc3C#N)c3cc(F)ccc32)cc1 [Compound 6] | < 100 nM | – | 100 to 1000 nM | < 100 nM | –
Cc1ccc(S(=O)(=O)n2c(-c3cccc(-c4ccc(C(=O)NCCS(=O)(=O)O)cc4Cl)c3)c(-c3ccsc3C#N)c3cc(F)ccc32)cc1 [Compound 10] | 100 to 1000 nM | – | 100 to 1000 nM | < 100 nM | –
Cc1ccc(S(=O)(=O)n2c(-c3cccc(-c4ccc(C(=O)O)cc4Cl)c3)c(-c3ccccc3C#N)c3cc(F)ccc32)cc1 [Compound 11] | < 100 nM | – | < 100 nM | < 100 nM | –
Cc1ccc(S(=O)(=O)n2c(-c3cccc(-c4cc(C)c(C(=O)O)cc4Cl)c3)c(-c3ccsc3C#N)c3cc(F)ccc32)cc1 [Compound 12] | < 100 nM | – | 100 to 1000 nM | < 100 nM | –
Cc1cc(C)c(S(=O)(=O)N(Cc2ccc(-c3cccc(S(C)(=O)=O)c3)cc2)Cc2ccc(C(F)(F)F)o2)c(C)c1 [GSK2033, reference compound] | – | – | – | – | blood/plasma exposure (below LLOQ) [1]: (14.4 ng/mL); liver exposure (below LLOQ) [1]: (9.6 ng/mL); oral bioavailability [1]: not orally bioavailable
CCOC(=O)c1ccc(CN(Cc2ccc(-c3cccc(S(C)(=O)=O)c3)cc2)S(=O)(=O)c2c(C)cc(C)cc2C)o1 [SR9238, reference compound] | – | – | – | – | blood/plasma exposure (below LLOQ) [1]: below LLOQ; liver exposure (below LLOQ) [1]: below LLOQ; oral bioavailability [1]: not orally bioavailable
